Measured values: US20100197908A1 (Boehringer Ingelheim International GmbH, priority 2006, published 2010)
pIC50: −log10 of the molar value. Where a name gives a salt, the structure may show the parent alone.

Target: T1, hMCH-1R (Homo sapiens, UniProt Q99705)
T1 construct: expressed in transfected cells; host or cells: CHO/Galpha16 cells (stably transfected), membranes
Test: MCH-1 receptor binding test (125I-MCH binding to membranes of hMCH-1R transfected CHO/Galpha16 cells)
Details: membranes of CHO/Galpha16 cells stably transfected with human hMCH-1R, 100 pM 125I-MCH
Experimental: After the incubation the reaction is filtered using a cell harvester through 0.5% PEI treated fibreglass filters (GF/B, Unifilter Packard). The membrane-bound radioactivity retained on the filter is then determined after the addition of scintillator substance (Packard Microscint 20) in a measuring device (TopCount of Packard). […] The analysis of the concentration binding curve is carried out on the assumption of one receptor binding site.

T1 sequence (Q99705 whole entry): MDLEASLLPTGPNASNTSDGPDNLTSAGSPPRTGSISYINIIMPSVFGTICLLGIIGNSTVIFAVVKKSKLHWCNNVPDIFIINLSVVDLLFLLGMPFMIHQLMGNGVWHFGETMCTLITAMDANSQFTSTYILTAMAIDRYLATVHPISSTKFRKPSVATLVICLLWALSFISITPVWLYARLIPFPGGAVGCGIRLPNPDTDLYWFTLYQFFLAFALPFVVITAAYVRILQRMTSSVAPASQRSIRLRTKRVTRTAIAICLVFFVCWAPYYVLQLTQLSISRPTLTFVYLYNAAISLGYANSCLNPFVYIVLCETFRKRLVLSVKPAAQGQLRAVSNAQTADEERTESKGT

SMILES | pIC50
Fc1ccccc1COc1ccc(CCc2ccc(CN3CCCC3)cc2)nn1 [Example 12.2, 3-(2-Fluoro-benzyloxy)-6-[2-(4-pyrrolidin-1-ylmethyl-phenyl)-ethyl]-pyridazine trifluoroacetate] | 7.89
CN(Cc1ccccc1)c1ccc(CCc2ccc(CN3CCCC3)cc2)nn1 [Example 16.2, Benzyl-methyl-{6-[2-(4-pyrrolidin-1-ylmethyl-phenyl)-ethyl]-pyridazin-3-yl}-amine] | 6.23
OC1CCN(Cc2ccc(CCc3ccc(OCC4CCCCO4)nn3)cc2)CC1 (centres unmarked) [Example 22.2, 1-(4-{2-[6-(Tetrahydro-pyran-2-ylmethoxy)-pyridazin-3-yl]-ethyl}-benzyl)-piperidin-4-ol] | 6.87
COC1CCN(Cc2ccc(C(=O)Cc3ccc(OCc4ccc(F)cc4)nn3)cc2)CC1 [Example 15.1, 2-[6-(4-Fluoro-benzyloxy)-pyridazin-3-yl]-1-[4-(4-methoxy-piperidin-1-ylmethyl)-phenyl]-ethanone] | 8.05
COCCN(C)Cc1ccc(CCc2ccc(OCc3ccc(F)cc3)nn2)cc1 [Example 10.5] | 8.40

Second part, the compound after the results:

pIC50 | SMILES
8.40 | OC1CCN(CCc2ccc(CCc3ccc(OCc4ccccc4)nn3)nc2)CC1 [Example 31.10]
8.10 | CC1CCCCN1Cc1ccc(CCc2ccc(OCc3ccccc3)nn2)nc1 (centres unmarked) [Example 4.4]
7.72 | CC(=O)N1CCN(CCOc2ccc(CCc3ccc(OCc4ccccc4)nn3)nc2)CC1 [Example 29.10]
7.80 | c1ccc(COc2ccc(CCc3ccc(CN4CCCC4)cn3)nn2)cc1 [Example 4.1]
7.70 | c1ccc(COc2ccc(CCc3ccc(CNCc4cccnc4)cn3)nn2)cc1 [Example 4.2]
8.40 | c1ccc(COc2ccc(CCc3ccc(CN4CCOCC4)cc3)nn2)cc1 [Example 1.1, 4-{4-[2-(6-Benzyloxy-pyridazin-3-yl)-ethyl]benzyl}-morpholine]
